Columns and labels:
[1] = In vitro stability in plasma (human); format: in vitro ADME; conditions: 37° C., after 2 hours
Protocol: Stability of PSMA-R2 ligand was assessed in vitro after incubation with plasma from four different species (mouse, rat, mini-pig and human). PSMA-R2 was incubated at 37° C. in the different matrices, at a final concentration of 10 µg/mL, for 30, 60 and 120 minutes. The samples were analyzed by LC-MS/MS method.

[2] = Plasma protein binding by ultrafiltration, mouse plasma; format: in vitro ADME
Protocol: (§1) Plasma protein binding of PSMA-R2 and ^175Lu-PSMA-R2 has been determined by ultrafiltration method, after incubation of the compounds in human, mouse, rat and minipig plasma at two different concentrations: 1 and 5 µg/mL.

[3] = Plasma protein binding by ultrafiltration, minipig plasma; format: in vitro ADME; conditions: read-out: fu (%) fraction unbound
Protocol: as §1

[4] = Plasma protein binding by ultrafiltration, human plasma; format: in vitro ADME; conditions: human plasma
Protocol: as §1

[5] = Plasma protein binding by ultrafiltration, rat plasma; format: in vitro ADME; conditions: read-out: fu (%) fraction unbound
Protocol: as §1

[6] = In vivo distribution in healthy CD-1 mice; parameters: species or system CD-1 healthy mice
Protocol: In vivo distribution studies were performed in CD-1 healthy mice using Ga-labelled PSMA-R2, which was administered intravenously at a dose of 120-150 µCi (4.44 - 5.55 MBq). At specific time points after intravenous injection, animals (3 or 4/group) were sacrificed, organs collected, weighted and evaluated in a gamma counter.

[7] = tested on: PC-3 PSMA positive and PSMA negative tumor xenografts; assay: In vivo distribution in tumor models (PSMA positive PIP and negative Flu xenografts); parameters: species or system athymic nude male mice; conditions: for Salivary glands uptake: 0.5 h post injection; for Kidney uptake / Tumor uptake / Tumor-to-kidney ratio: 1 h post injection
Protocol: Athymic nude male mice bearing the PC-3 PSMA positive and PSMA negative tumor xenografts were injected with approximately 4.5 MBq of ^68Ga-PSMA-R2, and subsequently assessed for biodistribution and imaging studies. At 4 time points (30 min, 1 h, 2 h and 4 h) post injection (p.i.), tumor and organ uptake was determined using a gamma-counter. To assess receptor-specificity additional groups of animals were coinjected with an excess of unlabeled PSMA-R2 (40 nmol).
The same study was performed with ^68Ga-PSMA-cpd 2, a comparative compound of the following formula: […]

[8] = tested on: PC3-PIP (PSMA positive) tumor; assay: In vivo efficacy in PC3-PIP PSMA positive model; parameters: species or system mice; conditions: single injection of 111 MBq; p<0.001
Protocol: An efficacy study was conducted in a prostate cancer model using Lu-labelled PSMA-R2).
Mice bearing PC3-PIP (PSMA positive) tumor were injected once with 111 MBq of ^177Lu-PSMA-R2, ^177Lu-PSMA-617, included as reference compound, or with saline (control).
Tumor volume is expressed either as an absolute value (mm^3) or relatively to the volume measured at the time of the first injection.

[9] = 1 µg/mL, read-out: fu (%) fraction unbound
[10] = 5 µg/mL, read-out: fu (%) fraction unbound
[11] = 1 and 5 µg/mL, read-out: Unbound fraction, range over labelled and unlabelled form

With `O=C(O)CCC(NC(=O)NC(CCCCN(Cc1ccc(Br)cc1)C(=O)CCCCCNC(=O)CN1CCN(CC(=O)O)CCN(CC(=O)O)CCN(CC(=O)O)CC1)C(=O)O)C(=O)O` (stereo not shown) [PSMA-R2] the recovery at 2 h, 10 µg/mL [1] was 85%, the fraction unbound at 1 µg/mL [2, 9] was 0.862 ± 0.111 and the fraction unbound at 5 µg/mL [2, 10] was 0.727 ± 0.015. The fraction unbound [2, 11] was 0.7 to 0.86, the fraction unbound at 1 µg/mL ([3]; 1 µg/mL) was 0.407 ± 0.043 and the fraction unbound at 5 µg/mL ([3]; 5 µg/mL) was 0.353 ± 0.085. The fraction unbound at 1 µg/mL [4, 9] was 0.299 ± 0.046, the fraction unbound at 5 µg/mL [4, 10] was 0.23 ± 0.005 and the fraction unbound [4, 11] was 0.25 to 0.45. For the same compound, the fraction unbound at 1 µg/mL ([5]; 1 µg/mL) was 0.256 ± 0.018 and the fraction unbound at 5 µg/mL ([5]; 5 µg/mL) was 0.226 ± 0.011.
With `O=C(O)CCC(NC(=O)NC(CCCCN(Cc1ccc(Br)cc1)C(=O)CCCCCNC(=O)CN1CCN(CC(=O)O)CCN(CC(=O)O)CCN(CC(=O)O)CC1)C(=O)O)C(=O)O.[68Ga]` (stereo not shown) [^68Ga-PSMA-R2] the Liver uptake ([6]; 30 minutes after intravenous injection) was 0.74%, the Liver uptake ([6]; 4 hours after intravenous injection) was 0.21% and the “Radiotracer uptake in remaining organs (intestine, pancreas, muscle, bone)” value ([6]; all time-points) was “Low”. The “Radiotracer uptake in blood, adrenals, lungs, thyroid” value ([6]; earliest time-point (30 min), decreased rapidly later) was “slightly high”, the “Excretion route (uptake in kidneys and bladder)” value ([6]; intravenous) was “excreted through the renal system” and the Salivary glands uptake [7] was 0.81% (0.5 h). The Kidney uptake [7] was 6% (1 h), the Tumor uptake [7] was 29% (1 h) and the Tumor-to-kidney ratio [7] was 5 (1 h).
In the case of `O=C(O)CC[C@H](NC(=O)N[C@@H](CCCCN(Cc1ccc(Br)cc1)C(=O)CCCCNC(=O)CN1CCN(CC(=O)O)CCN(CC(=O)O)CCN(CC(=O)O)CC1)C(=O)O)C(=O)O.[68Ga]` [^68Ga-PSMA-cpd2, reference compound], the Salivary glands uptake [7] is reported as 0.95% (0.5 h), the Kidney uptake [7] is reported as 13% (1 h) and the Tumor uptake [7] is reported as 36% (1 h). For the same compound, the Tumor-to-kidney ratio [7] was 3 (1 h).
With `O=C([O-])CN1CCN(CC(=O)[O-])CCN(CC(=O)NCC2CCC(C(=O)N[C@@H](Cc3ccc4ccccc4c3)C(=O)NCCCC[C@H](NC(=O)N[C@@H](CCC(=O)O)C(=O)O)C(=O)O)CC2)CCN(CC(=O)[O-])CC1.[177Lu+3]` (stereo partly shown) [^177Lu-PSMA-617, reference compound] the “Absolute tumor volume in comparison to control group” value [8] was “significantly reduced” and the “Relative tumor volume in comparison to control group” value [8] was “significantly reduced”.
In the case of `O=C([O-])CN1CCN(CC(=O)[O-])CCN(CC(=O)NCCCCCC(=O)N(CCCC[C@H](NC(=O)N[C@@H](CCC(=O)O)C(=O)O)C(=O)O)Cc2ccc(Br)cc2)CCN(CC(=O)[O-])CC1.[177Lu+3]` [^177Lu-PSMA-R2], the “Absolute tumor volume in comparison to control group” value [8] is reported as “significantly reduced” and the “Relative tumor volume in comparison to control group” value [8] is reported as “significantly reduced”.

From patent US20230226227A1, “PROSTATE SPECIFIC MEMBRANE ANTIGEN (PSMA) LIGANDS AND USES THEREOF” (ADVANCED ACCELERATOR APPLICATIONS (ITALY) SRL, priority 2019, published 2023)
